Results from article PMC9709406 (Frontiers in Pharmacology, 2022).
Where two headings read alike, the source gives them in different places.

Key:
H1650 cells = experiment: MTT assay for cell proliferation and cytotoxicity, H1650; assay type: cell-based; details: Homo sapiens, NCI-H1650, 48 h, H1650, n = 5
How it was run: (§1)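 Absorbance at 490 nm after 1–4 h MTT incubation gave viability of cells exposed 48 h to test compound (0–50 μM; vehicle 0.1% DMSO). Seeding was 2,200–2,500 cells/well, one day before dosing, in RPMI-1640/10% FBS at 37 °C, 5% CO2.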

H1975 cells = experiment: MTT assay for cell proliferation and cytotoxicity, H1975; assay type: cell-based, human; details: MTT, 48 h, H1975, n = 5, read-out: IC50 48 h H1975
How it was run: as §1

H1650TR cells = experiment: MTT assay, taxol-resistant H1650TR; assay type: cell-based; details: Homo sapiens, NCI-H1650, 48 h, value in parentheses in H1650 column
Text: (§2) The human cancer cells (H1650, H1975, KYSE70, KYSE410 and KYSE450) were purchased from the Type Culture Collection of the Chinese Academy of Sciences (Shanghai, China). The human immortalized normal esophageal epithelial cell line SHEE was donated by Dr. Enmin Li from the Laboratory of Tumor Pathology (Shantou University Medical College, Shantou, Guangdong, China). Drug-resistant cells (H1650TR, H1975OR, KYSE70TR, KYSE410TR and KYSE450TR) were induced by China-US (Henan) Hormel Cancer Institute. The cellswere cultured in RPMI-1640 complete growth medium containing 100 U/mL penicillin-streptomycin and 10% FBS. Based on the above medium formula, 100 nm/L paclitaxel was added in taxol-resistant cells, 100 nm/L gefitinib was added in gefitinib-resistant cells. The cells were incubated at 37 °C in an atmosphere containing 5% of CO2. The compounds were dissolved in DMSO to make a 50 mM stock solution and were diluted to the concentration of working solutions with complete growth medium before administration.
(§3) Cells were seeded in 96-well plates with 2,200–2,500 cells/well in100 μL. One day after seeding, test compounds with the concentration between 0 and 50 μM were added with 0.1% DMSO as control. Five multiple wells for each concentration. After 48 h, MTT was added and incubated in the plate for 1–4 h in the incubator. The absorbance at 490 nm was measured using a microplate reader (Thermo).

H1975OR cells = experiment: MTT assay, osimertinib-resistant H1975OR; assay type: cell-based; details: Homo sapiens, NCI-H1975, 48 h, osimertinib-resistant H1975OR, value in parentheses in H1975 column, read-out: IC50 48 h H1975OR (data in parentheses) (converted)
Text: as §2
as §3, with “After 48 h, MTT was added and incubated in the plate for 1–4 h in the incubator.” left out

SHEE cells = experiment: MTT assay, normal esophageal epithelial cell line SHEE; assay type: cell-based; details: Homo sapiens, 48 h, n = 5
How it was run: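 MTT read-out at 490 nm after 48 h treatment with 0–50 μM compound, applied one day after seeding 2,200–2,500 cells/well; five wells per concentration, 0.1% DMSO as control. Culture in RPMI-1640/10% FBS, with 100 nm/L paclitaxel kept in the taxol-resistant lines.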

KYSE70 cells = experiment: MTT assay, KYSE70; assay type: cell-based, human; details: Homo sapiens, KYSE-70; MTT, 48 h, KYSE70, n = 5
How it was run: as §1

KYSE410 cells = experiment: MTT assay, KYSE410; assay type: cell-based, human; details: Homo sapiens, KYSE-410; MTT, 48 h, KYSE410, n = 5; read-out: IC50 48 h KYSE410
How it was run: as §1

KYSE450 cells [1] = experiment: MTT assay, KYSE450; assay type: cell-based, human; details: Homo sapiens, KYSE-450; MTT, 48 h, KYSE450, n = 5; read-out: IC50 48 h KYSE450
How it was run: as §1

KYSE70TR cells = experiment: MTT assay, taxol-resistant KYSE70TR; assay type: cell-based, human; details: Homo sapiens; MTT, 48 h, taxol-resistant KYSE70TR, value in parentheses; read-out: IC50 48 h KYSE70TR (data in parentheses) (converted)
Text: as §2
as §3, with “After 48 h, MTT was added and incubated in the plate for 1–4 h in the incubator.” left out

KYSE410TR cells = experiment: MTT assay, taxol-resistant KYSE410TR; assay type: cell-based, human; details: Homo sapiens; MTT, 48 h, taxol-resistant KYSE410TR, value in parentheses; read-out: IC50 48 h KYSE410TR (data in parentheses) (converted)
Text: as §2
as §3, with “After 48 h, MTT was added and incubated in the plate for 1–4 h in the incubator.” left out

KYSE450TR cells [2] = experiment: MTT assay, taxol-resistant KYSE450TR; assay type: cell-based, human; details: Homo sapiens; MTT, 48 h, taxol-resistant KYSE450TR, value in parentheses; read-out: IC50 48 h KYSE450TR (data in parentheses) (converted)
Text: as §2
as §3, with “After 48 h, MTT was added and incubated in the plate for 1–4 h in the incubator.” left out

EGFR = molecular target: T1, EGFR (Homo sapiens, UniProt P00533); experiment: EGFR kinase assay (ELISA); assay type: biochemical; details: 25°C
T1 construct: purchased Active MOTIF
Experimental: Kinase inhibitory activities of the compounds were evaluated using the Protein Tyrosine Kinase Assay Kit (SignalChem (British Columbia, Canada)). The kinase enzyme of EGFR was purchased from Active MOTIF. The ELISA experiments were carried out according the instructions of the kit. Active kinases were incubated with indicated compounds in 1 × reaction buffer containing 20 μM substrate at 25°C for 1 h and 2 h, respectively. The absorbance was read with a multimode plate reader (PerkinElmer, United States) at 450 nm.

KYSE450 cells [3] = experiment: Annexin V/PI flow cytometry for apoptosis, KYSE450; assay type: cell-based, human; details: 48 h
Experimental: (§4) Cell-apoptosis analysis was carried out by flow cytometry using the Annexin V/PI apoptosis methods. […] Cells were harvested and incubated with 250 μL of 1 × Annexin V binding buffer containing 5 μL PI and 5 μL FITC Annexin V (final concentration 1.8 μg/ml, Biolegend (cat: 640945) for 15 min at room temperature in dark. 200 µL of 1 × binding buffer was added for flow cytometry analysis (BD FACSCalibur™ Flow Cytometer).

KYSE450TR cells [4] = experiment: Annexin V/PI flow cytometry for apoptosis, KYSE450TR; assay type: cell-based, human; details: 48 h
Experimental: as §4

KYSE450 cells [5] = experiment: Cell cycle analysis by flow cytometry, KYSE450; assay type: cell-based, human; details: KYSE450, 24 h; icotinib at 2 μM, 3l at 8 μM
Experimental: (§5) KYSE450/KYSE450TR cells were plated in 6-well plates with a density of 1×10^5 cells/well and cultured overnight. […] Trypsinization treatment and the cells were collected by centrifugation. The cell pellet was re-suspended in 70% ethanol at −20°C for at least 3 h. The cells were washed with PBS and were re-suspended in 250 μL of 0.6% tricine with Renease A for 1 h, then stained in PI (final concentration 1.8 μg/ml, Biolegend cat: 640945) for 15 min in dark. Cells were retransferred to the BD FACSCalibur™ Flow Cytometer. All analyses were performed with FlowJo software v105.3.6.

KYSE450TR cells [6] = experiment: Cell cycle analysis by flow cytometry, KYSE450TR; assay type: cell-based, human; details: 24 h, icotinib at 8 μM, 3l at 8 μM
Experimental: as §5

[7] = molecular target: T2, EGFR wild protein (H672-A1210) (Homo sapiens, UniProt P00533); experiment: EGFR protein affinity determined with SPR; assay type: binding; details: immobilized wild-type EGFR
T2 construct: purchased Active MOTIF 31165
Experimental: Firstly, EGFR protein (protein concentration : 0.468 μg/μL, Active MOTIF, cat: 31165, lot: 28215004) was covalently immobilized onto a CM5 sensor chip at densities of 2000 response units. […] During the drug-protein interaction, the change of the refractive index was measured in real-time which would allow the plotting of the results of interaction as response units versus time. The interaction results were analyzed under a BIA evaluation 3.0 software.

T2 sequence (P00533 672-1210): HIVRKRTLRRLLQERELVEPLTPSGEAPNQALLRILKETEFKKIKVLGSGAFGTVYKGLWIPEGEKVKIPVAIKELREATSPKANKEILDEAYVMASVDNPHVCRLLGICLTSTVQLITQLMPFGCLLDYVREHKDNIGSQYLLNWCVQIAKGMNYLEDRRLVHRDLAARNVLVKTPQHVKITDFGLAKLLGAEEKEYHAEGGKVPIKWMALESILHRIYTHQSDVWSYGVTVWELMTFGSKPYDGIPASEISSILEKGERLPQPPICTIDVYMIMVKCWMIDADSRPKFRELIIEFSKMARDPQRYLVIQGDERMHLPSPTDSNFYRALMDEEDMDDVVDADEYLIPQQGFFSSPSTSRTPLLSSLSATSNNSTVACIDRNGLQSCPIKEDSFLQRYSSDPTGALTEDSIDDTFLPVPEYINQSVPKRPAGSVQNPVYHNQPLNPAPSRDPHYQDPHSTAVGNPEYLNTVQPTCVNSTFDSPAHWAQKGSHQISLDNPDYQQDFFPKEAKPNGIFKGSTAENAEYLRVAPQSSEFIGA
T1 sequence (P00533 25-1210): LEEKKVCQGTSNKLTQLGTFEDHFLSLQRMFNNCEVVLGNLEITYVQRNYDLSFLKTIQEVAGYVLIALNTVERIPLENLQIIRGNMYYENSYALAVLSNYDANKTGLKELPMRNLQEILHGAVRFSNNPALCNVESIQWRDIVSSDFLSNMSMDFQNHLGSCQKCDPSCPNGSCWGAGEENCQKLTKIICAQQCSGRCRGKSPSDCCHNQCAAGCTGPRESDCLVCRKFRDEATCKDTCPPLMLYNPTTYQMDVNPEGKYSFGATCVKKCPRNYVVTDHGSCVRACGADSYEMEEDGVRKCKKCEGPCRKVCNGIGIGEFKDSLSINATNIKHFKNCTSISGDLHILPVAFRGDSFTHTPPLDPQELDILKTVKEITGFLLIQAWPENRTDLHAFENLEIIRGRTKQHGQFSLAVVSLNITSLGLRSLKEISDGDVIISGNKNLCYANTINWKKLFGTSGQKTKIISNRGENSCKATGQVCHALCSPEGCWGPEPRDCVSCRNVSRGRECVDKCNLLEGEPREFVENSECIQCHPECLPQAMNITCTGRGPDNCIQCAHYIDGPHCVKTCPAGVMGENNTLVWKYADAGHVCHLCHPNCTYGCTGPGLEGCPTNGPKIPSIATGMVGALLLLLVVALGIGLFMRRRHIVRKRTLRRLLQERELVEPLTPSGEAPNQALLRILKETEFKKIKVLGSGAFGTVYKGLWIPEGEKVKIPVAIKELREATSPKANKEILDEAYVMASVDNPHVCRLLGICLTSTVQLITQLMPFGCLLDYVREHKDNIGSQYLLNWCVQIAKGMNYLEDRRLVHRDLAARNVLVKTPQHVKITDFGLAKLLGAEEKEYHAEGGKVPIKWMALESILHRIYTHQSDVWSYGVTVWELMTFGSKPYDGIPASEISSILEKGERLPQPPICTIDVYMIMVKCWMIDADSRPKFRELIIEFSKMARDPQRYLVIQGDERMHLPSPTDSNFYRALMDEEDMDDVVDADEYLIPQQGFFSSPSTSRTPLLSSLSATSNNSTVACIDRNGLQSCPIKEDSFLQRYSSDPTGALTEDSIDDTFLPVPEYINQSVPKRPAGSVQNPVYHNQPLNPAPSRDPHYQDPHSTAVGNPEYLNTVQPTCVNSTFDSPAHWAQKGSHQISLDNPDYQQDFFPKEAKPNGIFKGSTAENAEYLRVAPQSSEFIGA

IC50 (H1650TR cells): > 50 µM | IC50 (H1975OR cells): > 50 µM | IC50 (EGFR; incubation 1 h, read-out: IC50 EGFR 1 h): 0.00138 µM | IC50 (EGFR; incubation 2 h, read-out: IC50 EGFR 2 h): 0.038 µM | Rmax(RU) [7]: 15.74 RU | Kd ([7]; 25°C): 36.1 µM
Structure (SMILES): C#Cc1cccc(Nc2ncnc3cc4c(cc23)OCCOCCOCCO4)c1 [icotinib, reference compound]
IC50 (H1650 cells): > 50 µM | IC50 (H1975 cells; Homo sapiens, NCI-H1975, 48 h): > 50 µM | IC50 (H1975 cells): 48.3 ± 2.13 µM | IC50 (SHEE cells): 19.2 ± 1.29 µM | IC50 (KYSE70 cells): > 50 µM | IC50 (KYSE410 cells): > 50 µM | IC50 (KYSE450 cells [1]): 30.4 ± 1.96 µM | IC50 (KYSE70TR cells): > 50 µM | IC50 (KYSE410TR cells): > 50 µM | IC50 (KYSE450TR cells [2]): > 50 µM | proportion of apoptotic cells (KYSE450 cells [3]; KYSE450, 2 μM): 7.84% | proportion of apoptotic cells (KYSE450 cells [3]; KYSE450, 4 μM): 12.25% | proportion of apoptotic cells (KYSE450TR cells [4]; 5 μM): 8.51% | proportion of apoptotic cells (KYSE450TR cells [4]; 10 μM): 10.43% | cell cycle phase in which cells were arrested (KYSE450 cells [5]): G1 phase | cell cycle phase in which cells were arrested (KYSE450TR cells [6]): G1 phase
